{
  "source": "patent US9266939B2",
  "about": "“Compositions comprising natriuretic peptides and methods of use thereof” (Alexion Pharmaceuticals, Inc., priority 2010, dated 2016)",
  "key": {"NPR-B [1]": {"target": "T1, NPR-B (Homo sapiens, UniProt P20594)", "T1 sequence (P20594 23-1047)": "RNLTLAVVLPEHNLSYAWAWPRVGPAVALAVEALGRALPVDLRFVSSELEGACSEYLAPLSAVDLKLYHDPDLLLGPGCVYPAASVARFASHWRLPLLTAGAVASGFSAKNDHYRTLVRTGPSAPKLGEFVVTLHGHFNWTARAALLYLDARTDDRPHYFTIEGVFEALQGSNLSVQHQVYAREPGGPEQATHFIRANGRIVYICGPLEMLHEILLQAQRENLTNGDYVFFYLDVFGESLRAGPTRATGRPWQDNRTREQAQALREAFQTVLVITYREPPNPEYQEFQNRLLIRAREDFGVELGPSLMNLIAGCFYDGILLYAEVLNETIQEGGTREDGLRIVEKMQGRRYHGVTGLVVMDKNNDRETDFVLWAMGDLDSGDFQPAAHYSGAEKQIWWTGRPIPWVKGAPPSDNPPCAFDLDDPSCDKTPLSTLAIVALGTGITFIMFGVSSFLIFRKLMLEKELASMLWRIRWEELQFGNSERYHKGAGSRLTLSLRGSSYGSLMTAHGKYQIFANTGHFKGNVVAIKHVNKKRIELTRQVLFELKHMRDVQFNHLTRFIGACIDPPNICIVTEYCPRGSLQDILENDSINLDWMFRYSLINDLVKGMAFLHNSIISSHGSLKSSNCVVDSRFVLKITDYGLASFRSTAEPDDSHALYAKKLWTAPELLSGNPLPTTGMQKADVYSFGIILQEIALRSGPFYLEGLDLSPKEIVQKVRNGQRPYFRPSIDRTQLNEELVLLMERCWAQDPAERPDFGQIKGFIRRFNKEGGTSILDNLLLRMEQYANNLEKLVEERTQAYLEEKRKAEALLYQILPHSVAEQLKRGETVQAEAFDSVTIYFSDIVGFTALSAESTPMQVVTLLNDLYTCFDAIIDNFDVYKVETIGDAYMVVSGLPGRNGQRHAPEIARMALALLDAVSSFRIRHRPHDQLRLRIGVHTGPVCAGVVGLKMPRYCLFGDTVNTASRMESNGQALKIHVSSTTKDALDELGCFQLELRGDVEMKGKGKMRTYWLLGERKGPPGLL", "experiment": "Membrane guanylyl cyclase (cGMP) assay, NPR-B", "assay_type": "biochemical", "conditions": "second NPR-B membrane assay (FIG. 21B)"}, "NPR-B [2]": {"target": "T1, NPR-B", "experiment": "Whole cell guanylyl cyclase (cGMP) assay, NPR-B", "assay_type": "cell-based", "set-up": "expressed in transfected cells", "procedure,_shortened": "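HEK293S cells, transiently transfected or stably expressing human NPR-B, treated in triplicate with increasing test-protein concentrations in serum-free DMEM with 1 mM IBMX and 0.5% BSA, 37° C, 30 min to one hour; CNP as reference. Lysate cGMP measured by Catchpoint kit; four-parameter logistic fit of dose-response curves.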"}, "Fgfr3^369/+ mice": {"tested_on": "Fgfr3^369/+ mice", "experiment": "Efficacy of SC NC2st on rescue of the ACH bone phenotype in Fgfr3^369/+ mice", "assay_type": "in vivo", "conditions": "61 days", "description": "The study was designed to evaluate the effect of daily subcutaneous (SC) administration of NC2 Streptag (NC2st) on rescue of the achondroplasia skeletal disorders in the mouse model of the disease, the Fgfr3^369/+ mice.\nFgfr3^369/+ mice were created by an amino acid substitution (Gly to Cys) at position 369 in the mouse Fibroblast Growth Factor Receptor 3 (Fgfr3) gene (Chen et al., J. Clin. Invest. 104(11): 1517-1525, 1999). Substitution 369 (Gly369Cys) in mouse Fgfr3 gene causes dwarfism with features mimicking human achondroplasia. […] Thus, the Fgfr3^369+ mouse is an appropriate model for non-clinical studies evaluating the treatment of achondroplasia.\nThe study was an open label parallel and randomized control study. Treatments were open label, and Table 5 provides details of the treatment groups.\nInjections were scheduled twice daily at approximately 8:00 to 10:00 AM and 8:00 to 10:00 PM. The dose volume was set at 4 ml/kg. The actual volume administered to each mouse was calculated and adjusted based on the daily body weight of each animal measured prior to the AM injection. Vehicle or NC2st was injected SC twice daily into the scapular or lumbar region of Fgfr3^369/+ animals from the third day after birth to 63 days of age.\nEx vivo radiographs of whole body, rib cage and skull were taken using a Faxitron model MX-20 DC4 under constant conditions (26 kV, 10 sec at 1×, 3× and 3× magnification, respectively). Bone measurements were performed on the radiographic images of all animals in a blinded fashion using the software Image Processing and Analysis in Java (ImageJ).\nBone samples were cleaned of excess tissue (not scraped) and fixed. Length of femur and tibia was measured using a caliper."}, "[3]": {"conditions": "NPR-B whole cell assay (FIG. 21C)"}, "[4]": {"conditions": "projected from relative activities of CNP22 and NC2st in NPR-B whole cell assays"}, "[5]": {"conditions": "Tx-100: 100 mg/kg SC twice daily"}},
  "note": "Marks after values point to notes of the source that are not given here.",
  "data": [
    {"substance": "NC2st: Fc-CNP fusion: Strep-tag II, TEV site, human IgG-1 Fc, 16-amino acid glycine-rich linker, CNP22; SEQ ID NO: 502", "values": [
      {"measurement": "efficacy relative to CNP", "setting": "NPR-B [1]", "value": 61, "unit": "%"},
      {"measurement": "potency relative to CNP (times less than that of CNP)", "setting": "NPR-B [1]", "value": 19, "unit": "times"},
      {"measurement": "efficacy relative to CNP", "setting": "NPR-B [2]; [3]", "value": 84, "unit": "%"},
      {"measurement": "potency relative to CNP (times less than that of CNP)", "setting": "NPR-B [2]; [3]", "value": 83, "unit": "times"},
      {"measurement": "projected targeted NC2st concentration to achieve 50% reversal of ACH phenotype", "setting": "NPR-B [2]; [4]", "value": "345 (±95 S.D.) nM"},
      {"measurement": "projected targeted NC2st concentration to achieve >100% reversal of ACH phenotype", "setting": "NPR-B [2]; [4]", "value": "1214 (±446 S.D.) nM"},
      {"measurement": "Cervical vertebrae length, % change vs Vehicle", "setting": "Fgfr3^369/+ mice; Tx-10: 10 mg/kg SC twice daily", "value": "+17.6%*"},
      {"measurement": "Femur length, % change vs Vehicle", "setting": "Fgfr3^369/+ mice; Tx-10: 10 mg/kg SC twice daily", "value": "+3.85%*"},
      {"measurement": "Lumbar vertebrae length, % change vs Vehicle", "setting": "Fgfr3^369/+ mice; Tx-10: 10 mg/kg SC twice daily", "value": "+8.64%*"},
      {"measurement": "Naso-anal length, % change vs Vehicle", "setting": "Fgfr3^369/+ mice; Tx-10: 10 mg/kg SC twice daily", "value": "+8.99%*"},
      {"measurement": "Neck-anal length, % change vs Vehicle", "setting": "Fgfr3^369/+ mice; Tx-10: 10 mg/kg SC twice daily", "value": "+12.4%*"},
      {"measurement": "Occipital-front distance, % change vs Vehicle", "setting": "Fgfr3^369/+ mice; Tx-10: 10 mg/kg SC twice daily", "value": "+0.89%"},
      {"measurement": "Skull Circularity index, % change vs Vehicle", "setting": "Fgfr3^369/+ mice; Tx-10: 10 mg/kg SC twice daily", "value": "−1.52", "unit": "%"},
      {"measurement": "Sternum length, % change vs Vehicle", "setting": "Fgfr3^369/+ mice; Tx-10: 10 mg/kg SC twice daily", "value": "+6.67%*"},
      {"measurement": "Tail length, % change vs Vehicle", "setting": "Fgfr3^369/+ mice; Tx-10: 10 mg/kg SC twice daily", "value": "+7.38%*"},
      {"measurement": "Thoracic vertebrae length, % change vs Vehicle", "setting": "Fgfr3^369/+ mice; Tx-10: 10 mg/kg SC twice daily", "value": "+11.6%*"},
      {"measurement": "Tibia length, % change vs Vehicle", "setting": "Fgfr3^369/+ mice; Tx-10: 10 mg/kg SC twice daily", "value": "+6.50%*"},
      {"measurement": "Total CTL vertebrae length, % change vs Vehicle", "setting": "Fgfr3^369/+ mice; Tx-10: 10 mg/kg SC twice daily", "value": "+11.6%*"},
      {"measurement": "Cervical vertebrae length, % change vs Vehicle", "setting": "Fgfr3^369/+ mice; [5]", "value": "+24.3%*"},
      {"measurement": "Femur length, % change vs Vehicle", "setting": "Fgfr3^369/+ mice; [5]", "value": "+3.85%*"},
      {"measurement": "Lumbar vertebrae length, % change vs Vehicle", "setting": "Fgfr3^369/+ mice; [5]", "value": "+13.6%*"},
      {"measurement": "Naso-anal length, % change vs Vehicle", "setting": "Fgfr3^369/+ mice; [5]", "value": "+14.3%*"},
      {"measurement": "Neck-anal length, % change vs Vehicle", "setting": "Fgfr3^369/+ mice; [5]", "value": "+21.1%*"},
      {"measurement": "Occipital-front distance, % change vs Vehicle", "setting": "Fgfr3^369/+ mice; [5]", "value": "+0.76%"},
      {"measurement": "Skull Circularity index, % change vs Vehicle", "setting": "Fgfr3^369/+ mice; [5]", "value": "−2.88", "unit": "%*"},
      {"measurement": "Sternum length, % change vs Vehicle", "setting": "Fgfr3^369/+ mice; [5]", "value": "+13.7%*"},
      {"measurement": "Tail length, % change vs Vehicle", "setting": "Fgfr3^369/+ mice; [5]", "value": "+7.22%*"},
      {"measurement": "Thoracic vertebrae length, % change vs Vehicle", "setting": "Fgfr3^369/+ mice; [5]", "value": "+25.3%*"},
      {"measurement": "Tibia length, % change vs Vehicle", "setting": "Fgfr3^369/+ mice; [5]", "value": "+8.13%*"},
      {"measurement": "Total CTL vertebrae length, % change vs Vehicle", "setting": "Fgfr3^369/+ mice; [5]", "value": "+20.9%*"}
    ]}
  ]
}
